This is an account of results in patent US20260184712A1, “Heterocyclic Compounds as ENT Inhibitors and Compounds for Use in the Treatment of Cancers” (iTeos Belgium SA, priority 2022, published 2026).

As usually defined, the IC50 is the concentration that gives 50% inhibition.

The assay has as its target T1, human ENT1 (Homo sapiens, UniProt Q99808).
T1 construct: JAR cells expressing ENT1 were purchased from ATCC; host or cells: JAR cells
T1 sequence (Q99808 1-456): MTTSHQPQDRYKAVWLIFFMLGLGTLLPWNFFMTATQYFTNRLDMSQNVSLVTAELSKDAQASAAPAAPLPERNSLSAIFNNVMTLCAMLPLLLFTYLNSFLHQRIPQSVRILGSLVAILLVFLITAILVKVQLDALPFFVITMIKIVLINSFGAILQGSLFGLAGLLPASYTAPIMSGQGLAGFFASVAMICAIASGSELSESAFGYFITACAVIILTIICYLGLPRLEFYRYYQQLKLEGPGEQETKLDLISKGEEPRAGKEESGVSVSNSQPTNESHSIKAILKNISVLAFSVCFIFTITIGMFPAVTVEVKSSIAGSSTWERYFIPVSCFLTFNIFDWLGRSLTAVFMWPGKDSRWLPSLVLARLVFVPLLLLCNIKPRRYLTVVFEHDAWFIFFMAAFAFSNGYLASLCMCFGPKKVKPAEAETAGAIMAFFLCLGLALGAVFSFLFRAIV
Nature of the assay: ENT1 binding assay (competition with Sahenta-DY647 on JAR cells). Particulars: competition with SAHENTA-DY647 binding; IC50 categorized; read-out: Binding Assay IC50. As for the experimental part: Compounds of the present disclosure were assayed to show ability to bind to human ENT1. The assay is a competition between a compound of interest and Sahenta-DY647, an ENT1 inhibitor that emits fluorescence (Ex=630 nm, Em=670 nm). By measuring the fluorescence at the end of the assay, one can assess the binding potency of the compounds tested. The compounds of the present disclosure were tested and compared to known ENT inhibitors, dilazep and NBMPR:
JAR cells expressing ENT1 were purchased from ATCC® (HTB-144TM). Cells were cultured in RPMI 1640 medium (LONZA®, #BE12-702F/U1) supplemented with 10% FBS (GIBCO®, #10270-106), 10 mM Hepes (LONZA®, #BE17-737E), 1 mM Sodium Pyruvate (LONZA®, #BE13-115E), and 2% Penicillin/Streptomycin (LONZA®, #DE17-603E) at 37° C. and 5% CO2.
The assay was conducted with the following buffer on the day of the assay: HBSS (LONZA®, #LO-527F) supplemented with 10 mM Hepes (LONZA®, #BE17-737E) and 0.1% BSA (Miltenyi®, #130-091-376).
JAR cells were resuspended in the described buffer. The compounds of interest and Sahenta-DY647 were diluted 200× with the described buffer.
A total of 50,000 cells were pre-incubated for 30 min at 4° C. with the compounds of the present disclosure before adding the corresponding amount of Sahenta-DY647 (100 nM) to the minimal concentration at Bmax and incubating for an additional 30 min at 4° C. The total volume of the reaction was 100 μL (50 μL of cells, 25 μL of the compounds of the present disclosure, and 25 μL of Sahenta-DY647) in a U-bottom 96 well plate (Greiner®, #650-180). The plates were washed 2× by centrifugation (4 min, 400 rcf at 4° C.) in the same buffer. Cells were re-suspended in 70 μL of the buffer and 50 μL was transferred to a Black 384 Optiplate (PerkinElmer®, #6007279). Fluorescence (Ex=630 nm, Em=670 nm) was acquired on a Spectramax i3x (Molecular Devices®).
Dose-response data from the compounds were analyzed with Graphpad Prism 9.1.1@software, using nonlinear regression applied to a sigmoidal dose-response model and the following equation:
Y=Bottom+(Top-Bottom)/(1+10^((LogIC50−X)*HillSlope)), with a shared bottom and top between the test reagent and dipyridamole.
Data from multiple experiments were compiled by taking the average pIC50 value for the reagent in question±the standard deviation (s.d.) and expressing it as an average IC50 value in nM.
The inhibitory effect of the test compound was expressed as a percentage of the inhibition of SAHENTA-DY647 binding.
With `O=[N+]([O-])c1ccc(COc2ncnc3c2ncn3[C@H]2C[C@H](O)[C@@H](CO)O2)cc1` [Compound 405], the IC50 is over 0.5 µM.

As for `NC(=O)[C@H]1O[C@@H](n2cnc3c(SCc4ccc([N+](=O)[O-])cc4)ncnc32)[C@H](O)[C@@H]1O` [Compound 243], the half-maximal inhibitory concentration (IC50) is over 0.5 µM.

For the compound `C[C@H]1O[C@@H](n2c(NC3CCC(O)C3)nc3c(OCc4ccc(Cl)cc4)ncnc32)[C@H](O)[C@@H]1O` (some centres unmarked) [Compound 101], the half-maximal inhibitory concentration (IC50) was in the range of 0.02 to 0.5 µM.

Turning to `C[C@H]1O[C@@H](n2c(NCCCO)nc3c(OCc4ccc(C#N)cc4)ncnc32)[C@H](O)[C@@H]1O` [Compound 43], the IC50 lay in the range of 0.02 to 0.5 µM.

Regarding `C[C@H]1O[C@@H](n2c(NC3CCCC3)nc3c(OCc4ccc(C(F)F)nc4)ncnc32)[C@H](O)[C@@H]1O` [Compound 95], the IC50 lay in the range of 0.001 to 0.02 µM.

Regarding `C[C@H]1O[C@@H](n2c(NC3CCCC3)nc3c(OCc4ccc(Cl)cc4)ncnc32)[C@H](O)[C@@H]1O` [Compound 91], the concentration for half-maximal inhibition (IC50) lay within 0.001 to 0.02 µM.

As to `C[C@H]1O[C@@H](n2cnc3c(OCCc4cc(F)c(C#N)c(F)c4)ncnc32)[C@H](O)[C@@H]1O` [Compound 223], the IC50 is over 0.5 µM.

Regarding `C[C@H]1O[C@@H](n2cnc3c(NCc4ccc(-c5ccccn5)cc4)ncnc32)[C@H](O)[C@@H]1O` [Compound 384], the IC50 was over 0.5 µM.

Take `C[C@H]1O[C@@H](n2cnc3c(OCCc4ccc(=O)n(C)c4)ncnc32)[C@H](O)[C@@H]1O` [Compound 401]: the concentration for half-maximal inhibition (IC50) is over 0.5 µM.

`C[C@H]1O[C@@H](n2c(NC3CCOCC3)nc3c(N4CCc5ccccc5C4)ncnc32)[C@H](O)[C@@H]1O` [Compound 170]: the half-maximal inhibitory concentration (IC50) lay in the range of 0.02 to 0.5 µM.

On to `CCOc1ccc(CNC(=O)c2ncnc3c2ncn3[C@@H]2O[C@H](C)[C@@H](O)[C@H]2O)cc1` [Compound 350], for which the half-maximal inhibitory concentration (IC50) is over 0.5 µM.

With `C[C@H]1O[C@@H](n2cnc3c(COc4ccc(Cl)cc4)ncnc32)[C@H](O)[C@@H]1O` [Compound 285], the 50% inhibitory concentration (IC50) is over 0.5 µM.

For `CN(C)C(=O)[C@H]1O[C@@H](n2cnc3c(OCc4ccc([N+](=O)[O-])cc4)ncnc32)[C@H](O)[C@@H]1O` [Compound 329], the IC50 was over 0.5 µM.

On to `Cc1ncc(CNc2nc3c(OCc4ccc(C#N)cc4)ncnc3n2[C@@H]2O[C@H](C)[C@@H](O)[C@H]2O)cn1` [Compound 71], for which the IC50 fell in the range of 0.001 to 0.02 µM.

In the case of `C[C@H]1O[C@@H](n2c(NCC3COC3)nc3c(OCc4ccc(Cl)cc4)ncnc32)[C@H](O)[C@@H]1O` [Compound 423], the IC50 is over 0.5 µM.

In the case of `C[C@H]1O[C@@H](n2c(NCCCO)nc3c(N4CCc5ccc(C#N)cc5C4)ncnc32)[C@H](O)[C@@H]1O` [Compound 155], the IC50 fell in the range of 0.001 to 0.02 µM.

Consider `C[C@H]1O[C@@H](n2c(N[C@@H]3CCC(F)(F)C3)nc3c(OCc4ccc([N+](=O)[O-])cc4)ncnc32)[C@H](O)[C@@H]1O` [Compound 83], for which the IC50 is under 0.001 µM.

Consider `C[C@H]1O[C@@H](n2c(N)nc3c(OCc4ccc([N+](=O)[O-])cc4)ncnc32)[C@H](O)[C@@H]1O` [Compound 4], for which the IC50 lay in the range of 0.02 to 0.5 µM.

Take `C[C@H]1O[C@@H](n2cnc3c(OCc4cccc(C(N)=O)c4)ncnc32)[C@H](O)[C@@H]1O` [Compound 373]: the IC50 was over 0.5 µM.

On to `C[C@H]1O[C@@H](n2cnc3c(SCc4ccc5ccncc5c4)ncnc32)[C@H](O)[C@@H]1O` [Compound 308], for which the half-maximal inhibitory concentration (IC50) was over 0.5 µM.

With `Cc1c(N[C@@H]2O[C@H](C)[C@@H](O)[C@H]2O)ncnc1OCCc1ccc([N+](=O)[O-])cc1` [Compound 345], the half-inhibitory concentration (IC50) is over 0.5 µM.

In the case of `C[C@H]1O[C@@H](n2cnc3c(NCc4ccc(C(F)(F)F)c(Cl)c4)ncnc32)[C@H](O)[C@@H]1O` [Compound 282], the half-maximal inhibitory concentration (IC50) is over 0.5 µM.

For `C[C@H]1O[C@@H](n2cnc3c(NCc4cc(C(F)(F)F)ccc4F)ncnc32)[C@H](O)[C@@H]1O` [Compound 378], the IC50 was over 0.5 µM.

As for `C[C@H]1O[C@@H](n2c(NCCO)nc3c(OCc4ccc(C#N)cc4)ncnc32)[C@H](O)[C@@H]1O` [Compound 41], the half-maximal inhibitory concentration (IC50) is 0.02 to 0.5 µM.

For the compound `CC(CCO)Nc1nc2c(OCc3ccc(F)cc3)ncnc2n1[C@@H]1O[C@H](C)[C@@H](O)[C@H]1O` (some centres unmarked) [Compound 98], the IC50 fell in the range of 0.001 to 0.02 µM.

As to `CCNc1nc2c(N3CCc4ccc(C#N)cc4C3)ncnc2n1[C@@H]1O[C@H](C)[C@@H](O)[C@H]1O` [Compound 198], the 50% inhibitory concentration (IC50) fell in the range of 0.02 to 0.5 µM.

Take `NC[C@H]1O[C@@H](n2cnc3c(SCc4ccc([N+](=O)[O-])cc4)ncnc32)[C@H](O)[C@@H]1O` [Compound 287]: the IC50 was over 0.5 µM.

`C[C@H]1O[C@@H](n2c(N[C@H]3CC[C@H](O)CC3)nc3c(N4CCc5ccccc5C4)ncnc32)[C@H](O)[C@@H]1O` [Compound 171]: the IC50 lay in the range of 0.02 to 0.5 µM.

In the case of `C[C@H]1O[C@@H](n2cnc3c(SCc4nc(-c5ccc(F)cc5)no4)ncnc32)[C@H](O)[C@@H]1O` [Compound 395], the half-maximal inhibitory concentration (IC50) is over 0.5 µM.

Take `C[C@H]1O[C@@H](n2cnc3c(OCc4cscn4)ncnc32)[C@H](O)[C@@H]1O` [Compound 321]: the IC50 was over 0.5 µM.

For `C[C@H]1O[C@H](n2cnc3c(OCc4ccc(C#N)c(F)c4)nc(Cl)nc32)[C@H](O)[C@@H]1O` [Compound 237], the IC50 is over 0.5 µM.

As for `C[C@H]1O[C@@H](n2c(NCc3cnn(C)c3)nc3c(N4CCc5ccc([N+](=O)[O-])cc5C4)ncnc32)[C@H](O)[C@@H]1O` [Compound 138], the half-maximal inhibitory concentration (IC50) is under 0.001 µM.

On to `CC(C)Nc1nc2c(N3CCc4ccc([N+](=O)[O-])cc4C3)ncnc2n1[C@@H]1O[C@H](C)[C@@H](O)[C@H]1O` [Compound 149], for which the 50% inhibitory concentration (IC50) lay in the range of 0.001 to 0.02 µM.

For `C[C@H]1O[C@@H](n2cnc3c(OCc4ccc(Cl)c(Cl)c4)ncnc32)[C@H](O)[C@@H]1O` [Compound 226], the half-maximal inhibitory concentration (IC50) was over 0.5 µM.

With `C[C@H]1O[C@@H](n2cnc3c(C(=O)N4CCC(c5ccc([N+](=O)[O-])cc5)CC4)ncnc32)[C@H](O)[C@@H]1O` [Compound 418], the 50% inhibitory concentration (IC50) is over 0.5 µM.

For the compound `C[C@H]1O[C@@H](n2cnc3c(C(=O)N4CCCC4c4ccccc4)ncnc32)[C@H](O)[C@@H]1O` (some centres unmarked) [Compound 253], the IC50 was over 0.5 µM.

In the case of `CC1OC(n2c(NC3CCC(C)(O)CC3)nc3c(OCc4ccc([N+](=O)[O-])cc4)ncnc32)C(O)C1O` (single isomer, unassigned) [Compound 118], the IC50 fell in the range of 0.001 to 0.02 µM.

For the compound `C[C@H]1O[C@@H](n2cnc3c(NCc4ccc(Cl)c(Cl)c4)ncnc32)[C@H](O)[C@@H]1O` [Compound 254], the IC50 is over 0.5 µM.

With `Cc1ccc(COc2ncnc3c2ncn3[C@@H]2O[C@H](C)[C@@H](O)[C@H]2O)cc1` [Compound 211], the IC50 lay in the range of 0.02 to 0.5 µM.

Consider `C[C@H]1O[C@@H](n2cnc3c(OCCc4ccc(Cl)cc4)ncnc32)[C@H](O)[C@@H]1O` [Compound 293], for which the 50% inhibitory concentration (IC50) was over 0.5 µM.

In the case of `O=C(NCCO)[C@H]1O[C@@H](n2cnc3c(OCc4ccc([N+](=O)[O-])cc4)ncnc32)[C@H](O)[C@@H]1O` [Compound 271], the half-inhibitory concentration (IC50) was over 0.5 µM.

Consider `C[C@H]1O[C@@H](n2cnc3c(N4CCC(c5ccc([N+](=O)[O-])cc5)CC4)ncnc32)[C@H](O)[C@@H]1O` [Compound 213], for which the IC50 was in the range of 0.02 to 0.5 µM.

Take `C[C@H]1O[C@@H](n2cnc3c(=O)n(Cc4ccc([N+](=O)[O-])cc4)ccc32)[C@H](O)[C@@H]1O` [Compound 415]: the IC50 is over 0.5 µM.

In the case of `C[C@H]1O[C@@H](n2c(NC3CCCC3)nc3c(OCc4ccc(OC(F)(F)F)cc4)ncnc32)[C@H](O)[C@@H]1O` [Compound 88], the IC50 lay in the range of 0.001 to 0.02 µM.
